Experimental data from patent publication US12421225B2, “Heteroaromatic amide derivative and medicament containing the same” (KAKEN PHARMACEUTICAL CO., LTD., priority 2018, dated 2025).

Key:
human Nav1.5 = human Nav1.5 (Homo sapiens (Human), UniProt Q14524); assay: Human Nav1.5 inhibitory activity evaluation (automated patch clamp QPatch16X, HEK293 cells stably expressing human Nav1.5); type: cell-based
Outline: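 Whole-cell automated patch clamp at room temperature on HEK293 stably expressing human Nav1.5; holding −80 mV, 20 consecutive cardiomyocyte action-potential-like test pulses before and after compound (0.1% DMSO). Inhibition measured on inward current at 20th pulse; IC50 from concentration-response curve.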

human Nav1.7 = human Nav1.7 (Homo sapiens (Human), UniProt Q15858); assay: Human Nav1.7 inhibitory activity evaluation (automated patch clamp QPatch16X, HEK293A cells stably expressing human Nav1.7 and human Navβ1); type: cell-based
Outline: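 QPatch16X whole-cell recordings at room temperature from HEK293A cells stably expressing human Nav1.7 with Navβ1, CsF-based internal solution, pH 7.4 external, 0.1% DMSO. From −100 mV holding, protocol included a 15 s hold at a potential inactivating ~30-40% of channels; IC50 from inward current at the second −10 mV pulse.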

[1] = HEK293 cells stably expressing human Nav1.5, automated patch clamp QPatch16X
[2] = HEK293A cells stably expressing human Nav1.7 and human Navβ1, automated patch clamp QPatch16X
[3] = human Nav1.5, automated patch clamp
[4] = human Nav1.7, automated patch clamp

Sequence of human Nav1.5 (Q14524 whole entry): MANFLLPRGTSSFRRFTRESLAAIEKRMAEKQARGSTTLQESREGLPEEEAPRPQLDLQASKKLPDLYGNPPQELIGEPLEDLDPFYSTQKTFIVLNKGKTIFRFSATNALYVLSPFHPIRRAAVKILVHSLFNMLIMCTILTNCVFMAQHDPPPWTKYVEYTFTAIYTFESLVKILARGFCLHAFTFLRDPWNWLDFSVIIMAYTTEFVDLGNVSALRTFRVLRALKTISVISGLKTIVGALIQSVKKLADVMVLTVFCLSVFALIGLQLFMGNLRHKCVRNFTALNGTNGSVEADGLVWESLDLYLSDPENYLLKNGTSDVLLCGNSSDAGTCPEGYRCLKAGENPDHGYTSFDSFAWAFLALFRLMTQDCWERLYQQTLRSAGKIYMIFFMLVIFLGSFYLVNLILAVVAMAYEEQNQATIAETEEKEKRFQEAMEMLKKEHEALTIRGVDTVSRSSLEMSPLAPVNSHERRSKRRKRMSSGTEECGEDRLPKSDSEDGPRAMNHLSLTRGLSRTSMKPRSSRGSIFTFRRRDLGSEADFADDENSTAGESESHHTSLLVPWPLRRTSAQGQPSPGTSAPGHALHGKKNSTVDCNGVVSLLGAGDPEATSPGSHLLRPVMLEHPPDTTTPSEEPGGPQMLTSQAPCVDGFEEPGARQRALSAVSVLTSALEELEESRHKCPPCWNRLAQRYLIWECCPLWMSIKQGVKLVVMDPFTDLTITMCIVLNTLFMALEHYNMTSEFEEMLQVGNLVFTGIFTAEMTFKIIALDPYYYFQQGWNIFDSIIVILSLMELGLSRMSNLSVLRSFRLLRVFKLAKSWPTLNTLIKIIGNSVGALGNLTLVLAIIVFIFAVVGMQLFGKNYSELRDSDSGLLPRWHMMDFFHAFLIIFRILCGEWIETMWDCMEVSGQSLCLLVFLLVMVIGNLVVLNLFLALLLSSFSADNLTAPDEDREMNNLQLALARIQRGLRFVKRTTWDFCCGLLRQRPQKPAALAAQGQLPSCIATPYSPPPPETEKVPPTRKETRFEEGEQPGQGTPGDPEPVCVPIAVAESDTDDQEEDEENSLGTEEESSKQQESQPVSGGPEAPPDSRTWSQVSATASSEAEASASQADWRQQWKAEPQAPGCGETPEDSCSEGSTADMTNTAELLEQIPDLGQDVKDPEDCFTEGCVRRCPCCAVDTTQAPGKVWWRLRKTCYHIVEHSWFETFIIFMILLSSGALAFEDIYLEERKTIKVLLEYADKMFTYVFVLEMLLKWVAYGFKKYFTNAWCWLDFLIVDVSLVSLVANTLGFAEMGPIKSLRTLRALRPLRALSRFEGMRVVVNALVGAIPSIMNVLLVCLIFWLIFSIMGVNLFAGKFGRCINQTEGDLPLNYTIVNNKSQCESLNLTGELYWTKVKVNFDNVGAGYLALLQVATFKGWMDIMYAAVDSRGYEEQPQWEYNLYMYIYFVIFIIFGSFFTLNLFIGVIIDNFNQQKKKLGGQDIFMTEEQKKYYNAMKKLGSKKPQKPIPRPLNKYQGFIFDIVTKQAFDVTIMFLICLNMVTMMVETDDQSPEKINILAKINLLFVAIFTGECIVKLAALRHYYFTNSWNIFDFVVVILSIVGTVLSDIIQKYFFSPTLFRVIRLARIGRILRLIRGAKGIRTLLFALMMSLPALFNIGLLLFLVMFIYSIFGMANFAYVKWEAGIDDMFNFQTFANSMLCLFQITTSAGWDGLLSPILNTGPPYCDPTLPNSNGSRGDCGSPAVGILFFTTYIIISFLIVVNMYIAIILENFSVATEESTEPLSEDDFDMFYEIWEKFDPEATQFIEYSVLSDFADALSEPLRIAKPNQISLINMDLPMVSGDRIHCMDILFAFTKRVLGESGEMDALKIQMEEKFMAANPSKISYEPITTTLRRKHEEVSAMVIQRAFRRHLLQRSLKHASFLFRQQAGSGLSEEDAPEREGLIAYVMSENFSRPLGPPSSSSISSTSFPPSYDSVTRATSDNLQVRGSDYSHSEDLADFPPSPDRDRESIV
Sequence of human Nav1.7 (Q15858 whole entry): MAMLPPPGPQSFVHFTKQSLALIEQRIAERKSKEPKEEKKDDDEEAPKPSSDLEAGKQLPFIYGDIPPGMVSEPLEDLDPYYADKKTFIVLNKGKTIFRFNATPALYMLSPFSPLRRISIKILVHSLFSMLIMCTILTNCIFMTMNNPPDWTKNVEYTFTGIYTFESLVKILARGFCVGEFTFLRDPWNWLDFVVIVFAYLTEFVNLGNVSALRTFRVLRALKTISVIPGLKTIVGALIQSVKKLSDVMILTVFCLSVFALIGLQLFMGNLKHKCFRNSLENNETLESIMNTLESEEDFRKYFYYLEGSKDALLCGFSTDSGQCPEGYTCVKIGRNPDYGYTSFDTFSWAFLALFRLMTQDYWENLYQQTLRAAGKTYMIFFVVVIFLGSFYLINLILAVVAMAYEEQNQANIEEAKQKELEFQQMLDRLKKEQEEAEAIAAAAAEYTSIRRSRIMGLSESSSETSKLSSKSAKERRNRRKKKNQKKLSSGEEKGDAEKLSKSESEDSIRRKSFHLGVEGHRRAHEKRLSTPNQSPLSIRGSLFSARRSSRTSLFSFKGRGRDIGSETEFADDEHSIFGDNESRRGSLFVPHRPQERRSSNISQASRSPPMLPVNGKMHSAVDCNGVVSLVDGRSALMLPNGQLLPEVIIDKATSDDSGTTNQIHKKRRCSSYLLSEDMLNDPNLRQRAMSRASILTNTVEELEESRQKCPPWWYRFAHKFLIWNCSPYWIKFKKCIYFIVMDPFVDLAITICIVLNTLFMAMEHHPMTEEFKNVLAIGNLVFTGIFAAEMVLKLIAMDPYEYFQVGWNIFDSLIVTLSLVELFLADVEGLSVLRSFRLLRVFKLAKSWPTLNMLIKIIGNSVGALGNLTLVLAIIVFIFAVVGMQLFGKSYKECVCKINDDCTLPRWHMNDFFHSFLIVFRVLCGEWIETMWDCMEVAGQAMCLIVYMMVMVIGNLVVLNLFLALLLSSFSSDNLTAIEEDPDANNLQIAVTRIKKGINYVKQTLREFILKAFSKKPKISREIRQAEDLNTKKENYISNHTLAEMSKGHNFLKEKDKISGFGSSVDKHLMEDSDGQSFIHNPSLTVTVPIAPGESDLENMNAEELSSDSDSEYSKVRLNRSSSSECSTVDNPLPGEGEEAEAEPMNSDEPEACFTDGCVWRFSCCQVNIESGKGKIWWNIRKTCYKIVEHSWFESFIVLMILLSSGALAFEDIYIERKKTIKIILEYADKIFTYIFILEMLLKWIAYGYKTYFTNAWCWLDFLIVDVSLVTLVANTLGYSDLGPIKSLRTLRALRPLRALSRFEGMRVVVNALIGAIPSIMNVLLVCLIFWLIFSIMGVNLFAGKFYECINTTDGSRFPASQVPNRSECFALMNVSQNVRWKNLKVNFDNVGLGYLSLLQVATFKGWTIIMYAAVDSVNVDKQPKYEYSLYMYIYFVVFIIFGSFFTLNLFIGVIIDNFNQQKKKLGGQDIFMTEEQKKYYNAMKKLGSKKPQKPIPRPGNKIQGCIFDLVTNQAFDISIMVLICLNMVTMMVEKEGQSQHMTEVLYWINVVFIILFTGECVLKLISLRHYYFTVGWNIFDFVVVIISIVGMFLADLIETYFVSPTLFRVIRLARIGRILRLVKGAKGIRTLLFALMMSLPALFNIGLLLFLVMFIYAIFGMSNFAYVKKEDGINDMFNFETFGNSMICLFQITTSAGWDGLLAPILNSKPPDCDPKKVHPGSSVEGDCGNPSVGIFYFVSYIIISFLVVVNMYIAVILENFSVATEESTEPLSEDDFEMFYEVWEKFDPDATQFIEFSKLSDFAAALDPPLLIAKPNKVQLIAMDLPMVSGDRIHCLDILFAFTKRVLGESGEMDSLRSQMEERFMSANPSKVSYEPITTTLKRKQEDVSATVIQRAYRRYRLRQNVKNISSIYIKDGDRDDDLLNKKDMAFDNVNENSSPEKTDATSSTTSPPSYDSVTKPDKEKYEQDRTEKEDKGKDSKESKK
Sequence of human Nav1.7 (Q07699 19-218 partner): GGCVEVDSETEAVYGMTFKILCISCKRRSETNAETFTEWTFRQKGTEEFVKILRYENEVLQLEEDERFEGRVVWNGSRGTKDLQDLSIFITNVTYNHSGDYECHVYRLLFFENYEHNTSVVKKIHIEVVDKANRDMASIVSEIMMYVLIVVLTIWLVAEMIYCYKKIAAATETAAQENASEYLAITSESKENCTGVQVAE

SMILES	IC50 (human Nav1.7; [2])	IC50 (human Nav1.7; [4])	IC50 (human Nav1.5; [1])	IC50 (human Nav1.5; [3])
O=C(N[C@H]1COc2ccc(Cl)cc2C1)c1cn2c(n1)CCC(OCC(F)(F)F)C2 (stereo partly drawn) [Example 38]	< 10000 nM		≥ 3000 nM	
O=C(c1cn2c(n1)CNC(c1cccc(OC(F)(F)F)c1)C2)N1CCOC(c2cccc(C(F)(F)F)c2)C1 (stereo not drawn) [Example 337]		< 10000 nM		≥ 3000 nM
O=C(N[C@H]1COc2ccc(Cl)cc2C1)c1cc2n(n1)CCC(OCC(F)(F)F)CO2 (single isomer, unassigned) [256 (isomer B)]		< 1000 nM		1000 to 3000 nM
O=C(N[C@H]1COc2ccc(C(F)(F)F)cc2C1O)c1cc2n(n1)CC[C@H](COCC1CC1)O2 (single isomer, unassigned; isomer a) [575(isomer A)]		< 1000 nM		1000 to 3000 nM
O=C(NCCc1cccc(C(F)(F)F)c1)c1cn2c(n1)CNC(c1cccc(C(F)(F)F)n1)C2 (stereo not drawn) [Example 324]		< 10000 nM		≥ 3000 nM
CN1Cc2nc(C(=O)NCCc3cccc(C(F)(F)F)c3)cn2CC1c1cccnc1C(F)(F)F (stereo not drawn) [Example 326]		< 10000 nM		≥ 3000 nM
COc1ccc(CCC2CCc3nc(C(=O)N4CCC(c5ccccc5)C4)cn3C2)cn1 (stereo not drawn) [Example 317]		< 10000 nM		≥ 3000 nM
O=C(N[C@H]1COc2ccc(C(F)(F)F)cc2C1O)c1cc2n(n1)C[C@H](COCC1CC1)O2 (single isomer, unassigned; isomer a) [576(isomer A)]		< 1000 nM		≥ 3000 nM
O=C(N[C@H]1COc2ccc(C(F)(F)F)cc2C1)c1nc2n(c1-c1ccccn1)CCOC2 [Example 67]	< 1000 nM		< 1000 nM	
O=C(N[C@H]1COc2ccc(Cl)cc2C1)c1cc2n(n1)CCC(OCC(F)(F)F)CO2 (single isomer, unassigned) [256 (isomer A)]		< 1000 nM		≥ 3000 nM
O=C(N[C@H]1COc2ccccc2C1)c1cn2c(n1)COC(c1ccccc1)C2 (stereo partly drawn) [Example 340]		< 10000 nM		≥ 3000 nM
O=C(N[C@H]1COc2ccc(Cl)cc2C1)c1cc2n(n1)CCN(C1(C(F)(F)F)CC1)C2 [Example 283]		< 1000 nM		< 1000 nM
O=C(N[C@H]1COc2ccccc2C1)c1cc2n(n1)CCN(C(=O)Cc1ccccc1)C2 [Example 276]		< 10000 nM		≥ 3000 nM
CN1Cc2nc(C(=O)NCCc3cccc(OCC4CCOCC4)c3)cn2CC1c1ccccc1 (stereo not drawn) [Example 327]		< 10000 nM		≥ 3000 nM
CN1Cc2nc(C(=O)N[C@H]3COc4ccccc4C3)cn2CC1CCC1CCCC1 (stereo partly drawn) [Example 52]	< 1000 nM		1000 to 3000 nM	
O=C(N[C@H]1COc2ccc(COc3ccccn3)cc2C1)c1cc2n(n1)CCC(C(F)(F)F)O2 (stereo partly drawn) [Example 392]		< 1000 nM		1000 to 3000 nM
O=C(N[C@H]1COc2ccc(Cl)cc2C1)c1cc2n(n1)CCN(CC1CCC1(F)F)C2 (stereo partly drawn) [Example 494]		< 1000 nM		1000 to 3000 nM
CC(C)(C)N1CCn2nc(C(=O)N[C@H]3COc4ccc(Cl)cc4C3)cc2C1 [Example 281]		< 10000 nM		≥ 3000 nM
O=C(N[C@H]1COc2ccc(-c3cccnc3)cc2C1)c1cc2n(n1)CCN(c1ccc(F)cc1)C2 [Example 279]		< 1000 nM		≥ 3000 nM

SMILES	IC50 (human Nav1.7; [2])	IC50 (human Nav1.7; [4])	IC50 (human Nav1.5; [1])	IC50 (human Nav1.5; [3])
O=C(NC1COc2cccc(F)c2C1)c1cc2n(n1)CCC(c1ccccc1)O2 (stereo not drawn) [Example 356]		< 1000 nM		≥ 3000 nM
O=C(NC1COc2cccc(Br)c2C1)c1cc2n(n1)CCC(c1ccccc1)O2 (stereo not drawn) [Example 353]		< 10000 nM		≥ 3000 nM
CN(C(=O)c1cn2c(n1)CCC(C(F)(F)F)C2)[C@H]1COc2ccc(Cl)cc2C1 (stereo partly drawn) [Example 3]	< 1000 nM		1000 to 3000 nM	
O=C(N[C@H]1COc2ccc(C(F)(F)F)cc2C1)c1nn2c(c1CCc1ccccn1)COCC2 [Example 531]		< 10000 nM		1000 to 3000 nM
N#Cc1ccc2c(c1)C[C@@H](NC(=O)c1cc3n(n1)CC(CCCOC(F)(F)F)O3)CO2 (single isomer, unassigned) [247 (isomer A)]		< 1000 nM		1000 to 3000 nM
O=C(N[C@H]1COc2ccc(Cl)cc2C1)c1cc2n(n1)CC(CCNCC(F)(F)F)O2 (single isomer, unassigned) [226 (isomer A)]		< 1000 nM		≥ 3000 nM
O=C(N[C@H]1COc2ccc(COCC(F)(F)F)cc2C1)c1cc2n(n1)CCN(CCC(F)(F)F)C2 [Example 507]		< 1000 nM		≥ 3000 nM
Cc1ccc(C2Cn3cc(C(=O)N[C@H]4COc5ccccc5C4)nc3CN2)s1 (stereo partly drawn) [Example 43]	< 10000 nM		≥ 3000 nM	
O=C(N[C@H]1COc2ccc(C(F)(F)F)cc2C1)c1nn2c(c1C(O)c1ccccn1)COCC2 (stereo partly drawn) [Example 530]		< 10000 nM		≥ 3000 nM
N#Cc1ccc2c(c1)C[C@@H](NC(=O)c1cc3n(n1)CCN(C1(c4ccc(F)cc4)CC1)C3)CO2 [Example 282]		< 1000 nM		1000 to 3000 nM
COc1cccc(OC2CCN(C(=O)c3cn4c(n3)CCC(C3CCCC3)C4)C2)n1 (stereo not drawn) [Example 28]	< 10000 nM		≥ 3000 nM	
O=C(NC1COc2ccc(F)cc2C1)c1cn2c(n1)CCC(C(F)(F)F)C2 (stereo not drawn) [Example 1, N-(6-fluorochroman-3-yl)-6-(trifluoromethyl)-5,6,7,8-tetrahydroimidazo[1,2-a]pyridine-2-carboxamide]	< 10000 nM		≥ 3000 nM	
O=C(N[C@H]1COc2ccccc2C1)c1cn2c(n1)CNC(CCC1CCCC1)C2 (stereo partly drawn) [Example 51]	< 1000 nM		1000 to 3000 nM	
O=C(NC1COc2cccc(Cl)c2C1)c1cn2c(n1)CCC(C(F)(F)F)C2 (stereo not drawn) [Example 8]	< 1000 nM		≥ 3000 nM	
O=C(N[C@H]1COc2ccc(C(F)(F)F)cc2C1O)c1cc2n(n1)CC(CCCOCC(F)F)O2 (single isomer, unassigned) [610 (isomer A)]		< 1000 nM		≥ 3000 nM
O=C(N[C@H]1COc2ccccc2C1)c1cc2n(n1)CCN(CC1CC(F)(F)C1)C2 [Example 488]		< 10000 nM		≥ 3000 nM
O=C(N[C@H]1COc2ccc(CCOC(F)F)cc2C1)c1cc2n(n1)CC(CCOC(F)F)O2 (single isomer, unassigned) [217 (isomer A)]		< 1000 nM		1000 to 3000 nM
O=C(N[C@H]1COc2ccc(C(F)(F)F)cc2C1)c1nc2n(c1-c1ccccn1)CCCC2 [Example 305]		< 1000 nM		1000 to 3000 nM

Continued, in another order:

IC50 (human Nav1.7; [2])	IC50 (human Nav1.7; [4])	SMILES	IC50 (human Nav1.5; [1])	IC50 (human Nav1.5; [3])
< 1000 nM		CCCC1CCn2nc(C(=O)N[C@H]3COc4ccc(C#N)cc4C3)cc2O1 (stereo partly drawn) [Example 94]	1000 to 3000 nM	
	< 1000 nM	N#Cc1ccc2c(c1)C[C@@H](NC(=O)c1cc3n(n1)CCC(COc1ccccn1)O3)CO2 (stereo partly drawn) [Example 411]		≥ 3000 nM
	< 10000 nM	N#Cc1ccc2c(c1)C[C@@H](NC(=O)c1cc3n(n1)CCC(COCC1(F)CC1)O3)CO2 (mixture of isomers) [Example 532]		≥ 3000 nM
	< 1000 nM	O=C(N[C@H]1COc2ccc(-c3cnccn3)cc2C1)c1cc2n(n1)CCC(COCC1CC1)O2 (stereo partly drawn) [Example 425]		≥ 3000 nM
	< 10000 nM	N#Cc1ccc2c(c1)C[C@@H](NC(=O)c1cc3n(n1)CCC(COCC1(F)CC1)O3)CO2 (single isomer, unassigned) [552 (isomer A)]		≥ 3000 nM
< 10000 nM		CCOCC1CCn2nc(C(=O)N[C@H]3COc4ccc(-c5ccccn5)cc4C3)cc2O1 (single isomer, unassigned) [124 (isomer B)]	≥ 3000 nM	
< 10000 nM		N#Cc1ccc2c(c1)C[C@@H](NC(=O)c1cc3n(n1)CCC(COCC(F)(F)F)O3)CO2 (mixture of isomers) [Example 114, N—((R)-6-cyanochroman-3-yl)-5-((2,2,2-trifluoroethoxy)methyl)-6,7-dihydro-5H-pyrazolo[5,1-b][1,3]oxazine-2-carboxamide]	≥ 3000 nM	
< 1000 nM		O=C(N[C@H]1COc2ccc(CC(F)F)cc2C1)c1cc2n(n1)CCC(COC(F)(F)F)O2 (single isomer, unassigned) [136 (isomer A)]	< 1000 nM	
< 1000 nM		CC1(COCC2CCn3nc(C(=O)N[C@H]4COc5ccc(C#N)cc5C4)cc3O2)CC1 (stereo partly drawn) [Example 112]	≥ 3000 nM	
< 10000 nM		CCOCC1CCn2nc(C(=O)N[C@H]3COc4ccc(-c5ccc(C#N)nc5)cc4C3)cc2O1 (stereo partly drawn) [Example 125]	≥ 3000 nM	
< 1000 nM		O=C(N[C@H]1COc2ccc(-c3ccncc3)cc2C1)c1cc2n(n1)CCC(c1ccccc1F)O2 (stereo partly drawn) [Example 80]	≥ 3000 nM	
	< 10000 nM	O=C(N[C@H]1COc2ccc(-c3ccccn3)cc2C1)c1cc2n(n1)CCC(C(F)(F)F)O2 (stereo partly drawn) [Example 382]		≥ 3000 nM
	< 10000 nM	COc1ccc(-c2ccc3c(c2)C[C@@H](NC(=O)c2cc4n(n2)CCC(C(F)(F)F)O4)CO3)cn1 (stereo partly drawn) [Example 378]		≥ 3000 nM
< 10000 nM		O=C(N[C@H]1COc2ccc(CC(F)F)cc2C1)c1cc2n(n1)CCC(COCC1CC1)O2 (single isomer, unassigned) [109 (isomer B)]	≥ 3000 nM	
< 1000 nM		O=C(N[C@H]1COc2ccc(CC(F)F)cc2C1)c1cc2n(n1)CCC(COCC1CC1)O2 (stereo partly drawn) [Example 108]	1000 to 3000 nM	
	< 1000 nM	N#Cc1ccc(-c2ccc3c(c2)C[C@@H](NC(=O)c2cc4n(n2)CCC(C(F)(F)F)O4)CO3)cn1 (stereo partly drawn) [Example 174]		≥ 3000 nM
	< 1000 nM	Cn1cc(-c2ccc3c(c2)C[C@@H](NC(=O)c2cc4n(n2)CC(CCOCC2CC2)O4)CO3)cn1 (stereo partly drawn) [Example 460]		≥ 3000 nM
